From patent US20240182427A1, “SOLID DOSAGE FORMS OF A PLASMA KALLIKREIN INHIBITOR” (Rezolute, Inc., priority 2022, published 2024)

Experiments:
[1] = Aqueous solubility of anhydrous Crystalline Form I; format: physicochemical; conditions: water (aqueous); anhydrous Crystalline Form I of acetate salt, at 25° C.
[2] = Intestinal permeability / solubility classification (BCS)
[3] = tested on: angiotensin-II-treated rodents; conditions: cited from earlier work
[4] = tested on: rat model of ischemic stroke; conditions: cited from earlier work
[5] = tested on: model of hemorrhagic stroke; conditions: cited from earlier work
[6] = tested on: patients with hereditary angioedema; conditions: cited from earlier work
[7] = tested on: animal model of ischemic stroke; conditions: cited from earlier work
[8] = tested on: mouse model of middle cerebral artery occlusion; conditions: cited from earlier work

In the case of N=C(N)c1ccc(CNC(=O)c2cnn(Cc3ccccc3)c2)cc1 [Compound 1, 1-benzyl-1H-pyrazole-4-carboxylic acid 4-carbamimidoylbenzylamide], the solubility [1] is reported as ~8300 µg/mL, the BCS class [2] is reported as “BCS Class 3” and the solubility [2] is reported as “high”. The retinal vascular permeability [3] was “reduce”, the cerebrovascular edema [4] was “reduce” and the infarction volume [4] was “reduce”. For the same molecule, the “expansion of intracerebral hemorrhage” value [5] was “reduce”.

In the case of NC(N)=NCCC[C@@H](N)C(=O)N[C@@H](CCCN=C(N)N)C(=O)N1CCC[C@H]1C(=O)N1C[C@H](O)C[C@H]1C(=O)NCC(=O)N[C@@H](Cc1cccs1)C(=O)N[C@@H](CO)C(=O)N1Cc2ccccc2C[C@@H]1C(=O)N1[C@H](C(=O)N[C@@H](CCCN=C(N)N)C(=O)O)C[C@@H]2CCCC[C@@H]21 [icatibant], the treating hereditary angioedema ([6]; human, in vivo) is listed as “effective”.

In the case of Hoe-140 [reference compound], the retinal vascular permeability [3] is listed as “reduce”.

In the case of ecallantide, the brain edema [7] is given as “reduced”, the infarct volume [7] is given as “reduced” and the neurological deficits [7] is given as “reduced”. The “edema in patients with hereditary angioedema” value ([6]; patients) was “alleviates”.

B1: C1-INH: the major endogenous inhibitor of PK (protein, UniProt P05155 23-500, looked up)
Plasma protease C1 inhibitor: NPNATSSSSQDPESLQDRGEGKVATTVISKMLFVEPILEVSSLPTTNSTTNSATKITANTTDEPTTQPTTEPTTQPTIQPTQPTTQLPTDSPTQPTTGSFCPGPVTLCSDLESHSTEAVLGDALVDFSLKLYHAFSAMKKVETNMAFSPFSIASLLTQVLLGAGENTKTNLESILSYPKDFTCVHQALKGFTTKGVTSVSQIFHSPDLAIRDTFVNASRTLYSSSPRVLSNNSDANLELINTWVAKNTNNKISRLLDSLPSDTRLVLLNAIYLSAKWKTTFDPKKTRMEPFHFKNSVIKVPMMNSKKYPVAHFIDQTLKAKVGQLQLSHNLSLVILVPQNLKHRLEDMEQALSPSVFKAIMEKLEMSKFQPTLLTLPRIKVTTSQDMLSIMEKLEFFDFSYDLNLCGLTEDPDLQVSAMQHQTVLELTETGVEAAAASAISVARTLLVFEVQQPFLFVLWDQQHKFPVFMGRVYDPRA
For B1, the infarct size [8] is given as “reduced”.
